The values below come from patent publication US20100197602A1, “USE OF FOLLICULAR GONADOTROPIN RELEASING PEPTIDE AS A THERAPEUTIC AGENT IN THE TREATMENT OF STREPTOCOCCUS PNEUMONIAE INFECTION” (priority 2007, published 2010).

The assay has as its system drug-resistant Mycobacterium tuberculosis. To be noted: drug-resistant Mycobacterium tuberculosis (PAS, streptomycin, INH); peptide 10 micrograms per ml; seven days.

Structures are written as SMILES. Residues, ends and D or L forms follow the SMILES beside them.

For `C[C@@H](O)[C@H](N)C(=O)N[C@@H](CC(=O)O)C(=O)N[C@H](C(=O)N[C@@H](CO)C(=O)N[C@@H](Cc1c[nH]cn1)C(=O)N[C@@H](Cc1c[nH]cn1)C(=O)N[C@@H](CC(=O)O)C(=O)N[C@@H](CCC(N)=O)C(=O)N[C@@H](CC(=O)O)C(=O)N[C@@H](Cc1c[nH]cn1)C(=O)N1CCC[C@H]1C(=O)N[C@H](C(=O)N[C@@H](Cc1ccccc1)C(=O)N[C@@H](CC(N)=O)C(=O)O)[C@@H](C)O)[C@@H](C)O` [FGRP, Thr-Asp-Thr-Ser-His-His-Asp-Gln-Asp-His-Pro-Thr-Phe-Asn-OH] (H-TDTSHHDQDHPTFN-OH), the “% inhibition” value came to 0.0%.

The term % inhibition denotes the change of the read-out against control, counted positive when it falls. A higher % inhibition goes with a strong effect.
